{"source": "paper PMC10473160", "about": "(Cancer Research Communications, 2023)", "key": {"[1]": {"tested_on": "NCI-H1703 cells", "test": "Cell Titer Glo cellular cytotoxicity assay, NCI-H1703", "assay_type": "cell-based", "conditions": "Homo sapiens, NCI-H1703, 144 h; H1703, 6 days, representative experiment, unit not readable in the picture; read-out: IC50 (Fig. 3B)", "quoted_text": "(§1) Cells were seeded in 384-well plates at a density of 300–500 cells per well (depending upon the doubling time for each cell line) with 40 μL of media per well using a multidrop combi cell dispenser (Thermo Fisher Scientific). The cells were incubated at room temperature for 30 minutes to minimize edge effects. The next day, the cells were treated with drugs of interest at various concentrations using a D300e digital dispenser (Tecan). Following treatment, the cells were cultured at 37°C for 6 days. On day 6 after treatment initiation, the plates and Cell Titer Glo (CTG; Promega; PRG9243) were incubated at room temperature (protected from light) for 1 hour to reach equilibrium. After incubation, half of the CTG volume was added to one volume of cell culture medium in each well. The plates were then shaken for 30 seconds to induce cell lysis. The cells were then incubated at room temperature for 12 minutes protected from light to stabilize the luminescence signal. The luminescent cell viability was measured using an EnVision plate reader (PerkinElmer). For cell viability, the data were analyzed using Excel (Microsoft) and GraphPad Prism (RRID:SCR_002798; Dotmatics). […] For synergy, the data were analyzed using Excel, SynergyFinder ([28]), and Combenefit ([29]). […]"}, "[2]": {"tested_on": "NCI-H1703 cells", "conditions": "NCI-H1703, Bliss, 6 days of combination treatment", "quoted_text": "as §1"}, "[3]": {"tested_on": "A549 cells", "test": "CTG combination synergy (Bliss) with ZL-2201, A549", "assay_type": "cell-based, human", "conditions": "6 days of combination treatment", "quoted_text": "Cells were seeded in 384-well plates at a density of 300–500 cells per well (depending upon the doubling time for each cell line) with 40 μL of media per well using a multidrop combi cell dispenser (Thermo Fisher Scientific). The cells were incubated at room temperature for 30 minutes to minimize edge effects. The next day, the cells were treated with drugs of interest at various concentrations using a D300e digital dispenser (Tecan). Following treatment, the cells were cultured at 37°C for 6 days. On day 6 after treatment initiation, the plates and Cell Titer Glo (CTG; Promega; PRG9243) were incubated at room temperature (protected from light) for 1 hour to reach equilibrium. After incubation, half of the CTG volume was added to one volume of cell culture medium in each well. The plates were then shaken for 30 seconds to induce cell lysis. […] The luminescent cell viability was measured using an EnVision plate reader (PerkinElmer). For cell viability, the data were analyzed using Excel (Microsoft) and GraphPad Prism (RRID:SCR_002798; Dotmatics). The data were first transformed to a log scale on the X-axis, then transformed values were normalized, and finally, normalized values were fitted using a nonlinear regression curve fit. For synergy, the data were analyzed using Excel, SynergyFinder ([28]), and Combenefit ([29]). […]"}, "[4]": {"tested_on": "NCI-H1703 cells", "test": "High-content imaging assay (γH2AX, phospho-histone H3, cleaved caspase 3)", "assay_type": "cell-based, human", "conditions": "single-agent treatment, 72 hours", "experimental": "Cells were seeded in 96-well plates at a density of 10,000 cells per well with 100 μL of media per well. The cells were cultured overnight. The next day, the cells were treated with doxorubicin (0.006 μmol/L), ZL-2201 (0.1, 0.3, 0.5, 1, and 3.6 μmol/L), and a combination of doxorubicin and ZL-2201 for the indicated times. The cells were washed in PBS and fixed by adding Cytofix/Perm buffer (BD; 554714) at room temperature for 20 minutes. Cells were washed with Perm wash buffer and blocked with Perm wash buffer and 3% FBS at room temperature for 1 hour. The cells were then incubated with primary antibodies against γH2AX-Ser139 (RRID:AB_309864; Millipore; 05-636), pPH3 (Ser10; 6G3; RRID:AB_331748; Cell Signaling Technology; 9706) and cleaved caspase 3 (Asp175; 5A1E; RRID:AB_2070042; Cell Signaling Technology; 9664) overnight at 4°C. Cells were washed the following day and incubated with secondary antibodies (Alexa Fluor 488; Invitrogen; A32723 or A32731 and Alexa Fluor 647; A32733) at room temperature for 45 minutes in the dark. The cells were washed and stained with Hoescht (Thermo Fisher Scientific; H3570) at room temperature for 15 minutes in the dark. Images were obtained and quantified using the ImageXpress Micro Confocal High-Content Imaging System (Molecular Devices). A total of 16 fields were obtained per image for each timepoint and treatment groups."}}}
{"smiles": "COc1cccc2c1C(=O)c1c(O)c3c(c(O)c1C2=O)C[C@@](O)(C(=O)CO)C[C@@H]3O[C@H]1C[C@H](N)[C@H](O)[C@H](C)O1", "note": "[doxorubicin]", "values": [{"measurement": "IC50", "setting": "[1]", "value": 4, "unit": "nM"}, {"measurement": "synergy score in combination with ZL-2201", "setting": "[2]", "value": "> 30"}, {"measurement": "synergy score in combination with ZL-2201", "setting": "[3]", "value": "> 30"}, {"measurement": "cleaved caspase 3 (apoptosis) level", "setting": "[4]", "value": "did not alter"}, {"measurement": "phospho-histone H3 (mitotic index) level", "setting": "[4]", "value": "did not alter"}]}
